Measurements as given in patent US12509465B2, “Benzoimidazole derivatives as anticancer agents” (CENTRE LEON BERARD, priority 2016, dated 2025).

What was measured:
[1] = biological target: Myd88-ERK1 (Homo sapiens (Human), UniProt P27361); assay: HTRF assay of MyD88-ERK1 interaction; assay type: binding; details: 6xHis-ERK1 7.5 nM, biotin-MyD88peptide 25 nM; read-out: IC50* (μM) on Myd88-ERK1 in HRTF Assay
Excerpt: (§1) [drawing 67] 2-(4-dimethylamino-phenyl)-1H-benzoimidazole-5-carboxylic acid (3-chloro-phenyl)-amide was synthesized from 2-(4-dimethylamino-phenyl)-1H-benzoimidazole-5-carboxylic acid and 3-chloro-phenylamine by following the procedure for example 1. ^1H NMR (400 MHz, DMSO-d6) δ 12.90 (s, 1H), 10.37 (s, 1H), 8.17 (s, 1H), 8.08-7.98 (m, 3H), 7.82-7.73 (m, 2H), 7.61 (d, J=8.3 Hz, 1H), 7.39 (t, J=8.1 Hz, 1H), 7.15 (ddd, J=8.0, 2.1, 0.9 Hz, 1H), 6.91-6.81 (m, 2H), 3.02 (s, 6H). MS m/z (M+H) 390.9. 2/Biological Activity 2-1/In Vitro Determination of Compound Activity by HRTF Assay Principle: In the experiment, recombinant Erk1 and Erk2, tagged with a polyhistidine stretch in their N-terminal part were used. To reproduce the interaction between ERK1/2 and Myd88, a peptide corresponding to amino acids 24-40 of Myd88 was used: biotin-Ahx-[…] with Ahx being aminohexanoic acid as a spacer (biotin-MyD88peptide). This peptide encompassed the interaction motif of Myd88 with the CD domain of ERK1/2. To perform the HTRF assay this peptide was N-terminally labelled with biotin. To detect the interaction between the peptide and Erk1 or Erk2 the following components were used: an antibody directed against the His-tag, labelled with the donor fluorophore (Europium cryptate); The streptavidine protein, labelled with the acceptor XL665 fluorophore directed against the biotin. All the components except Erk1, Erk2 and the peptide were purchased from Cisbio (Condolet, France).
(§2) Homogeneous Time Resolved Fluorescence (HTRF) assay combines two techniques: Fluorescence Resonance Energy Transfer (FRET) and Time Resolved (TR) measurement. In TR-FRET, a transfer of fluorescence between a donor and an acceptor molecule generates a signal that can then be measured. This energy transfer is only possible when both fluorophores are close enough to each other. Therefore, this method can be used to detect protein-protein interaction.
For MyD88-ERK1 interaction the reaction medium contained: 6xHis-ERK1 at 7.5 nM, biotin-MyD88peptide at 25 nM, anti-Histidine-Cryptate antibody at 1.3325 nM and XL665 labeled-Streptavidine at 3.125 nM.
(§3) Concentrations of compounds to be tested ranged from 0.1 μM to 100 μM. Stock solutions of compounds according to the invention were prepared at 10 mM in DMSO. […] The plate was incubated at room temperature for 2 hours and fluorescence was measured using a TECAN Infinite F500 Reader®.
(§4) Results are calculated as the variation of fluorescence (Delta F) between control and samples. Delta F was calculated using the following equation: [(Ratio sample-Ratio of the arithmetic mean of the control)/Ratio of the arithmetic mean of the control]×100 where ratio=(Acceptor fluorescence/Donor fluorescence)×10000. […]

[2] = system: ERK1/2; assay: Cell-based assay, SRE luciferase reporter in HCT116 p53+/+ cells; details: Homo sapiens, HCT-116, 2 hours pretreatment, 10% FCS stimulation
Excerpt: The terms “SRE promoter” refer to “Serum response elements”, which is a DNA sequence (CC(A/T)6GG) that is used upstream of reporter genes and is known to be the binding site of the SRF (Serum response factor) proteins encoded by SRF gene identified by Gene Bank number (Gene ID: 6722, NM_003131.2). To determine the activity of the compounds on ERK1/2, Human Colon Tumor (HCT116) p53+/+ cell line stably transformed to express the luciferase reporter gene under the control of the serum response element (SRE) was used. This cell line was cultured in McCoy's medium supplemented with 10% FBS, 2 mM glutamine, 1% antibiotics and 1 μM of puromycin.
HCT116 p53+/+ SRE luciferase cells were plated in 96-well flat-bottom plate at 20,000/well and incubated at 37° C. for 36 hours. The medium was discarded and replaced by 100 μl of serum free medium for 16 hours. Cells were then pretreated for 2 hours with the compounds according to the invention at various concentrations (from 0.001 μM to 80 μM). Cells were then stimulated by addition of 10% FCS and incubated at 37° C. for four additional hours and the expression of reporter gene was assessed using the One-Glo Luciferase reagent (Promega). Luminescence was quantified after 5 minutes in a TECAN infinite M200 Reader (Männedorf, Switzerland). The results are presented below at paragraph 2-5.

[3] = biological target: Myd88-ERK2 (Homo sapiens (Human), UniProt P28482); assay: HTRF assay of MyD88-ERK2 interaction; assay type: binding; details: GST-ERK2 50 nM, biotin-MyD88pep 50 nM; read-out: IC50* (μM) on Myd88-ERK2 in HRTF Assay
Excerpt: as §1, §2
For MyD88-ERK2 interaction the reaction medium contained: GST-ERK2 at 50 nM, biotin-MyD88pep at 50 nM, anti-GST-Cryptate antibody at 0.8 nM and XL665 labeled-Streptavidine at 12.5 nM.
as §3, §4

[4] = system: HCT116 cells; assay: Apoptosis assay (Caspase-Glo 3/7); assay type: cell-based, Human; details: HCT116 p53+/+ cells, 16 h treatment, DMSO treated cells as control
Method: Cellular apoptosis was measured using the Caspase-Glo® 3/7 assay kit (Promega). To perform this study, HCT116 p53+/+ cells were seeded at a density of 7,000 cell/well in 96-half wells plate and maintained 24 h at 37° C. in McCoy's medium supplemented with 2 mM glutamine, 1% penicillin, 1% of streptomycin and 10% FBS. Cells were then treated with the compounds at various concentrations ranging from 1 μM to 100 μM depending on the compound. The DMSO concentration was normalized at 1% in each well and the cells were incubated for 16 h. Caspase 3/7 activity was monitored using caspase-Glo 3/7 kit according to the manufacturer instructions. Briefly, 50 μL of Caspase-Glo® 3/7 reagent was added in each well and the plates were gently agitated for 30 s and let at room temperature for an additional hour. Luminescence was then measured in a TECAN infinite 200 microplate reader. Results are expressed as the fold induction of caspase 3/7 activation using DMSO treated cells as control. The results are presented on FIGS. 1 to 3.

Sequence of Myd88-ERK2 (P28482 whole entry): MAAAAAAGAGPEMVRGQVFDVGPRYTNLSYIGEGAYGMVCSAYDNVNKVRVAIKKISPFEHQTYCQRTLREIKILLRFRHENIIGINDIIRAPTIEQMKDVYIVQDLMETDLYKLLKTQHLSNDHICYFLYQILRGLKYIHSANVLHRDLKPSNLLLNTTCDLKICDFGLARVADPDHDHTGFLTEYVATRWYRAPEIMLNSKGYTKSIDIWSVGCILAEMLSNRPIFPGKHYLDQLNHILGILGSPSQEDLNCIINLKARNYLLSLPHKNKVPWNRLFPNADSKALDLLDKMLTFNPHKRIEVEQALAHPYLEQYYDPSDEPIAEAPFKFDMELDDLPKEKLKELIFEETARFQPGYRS
Sequence of Myd88-ERK1 (P27361 whole entry): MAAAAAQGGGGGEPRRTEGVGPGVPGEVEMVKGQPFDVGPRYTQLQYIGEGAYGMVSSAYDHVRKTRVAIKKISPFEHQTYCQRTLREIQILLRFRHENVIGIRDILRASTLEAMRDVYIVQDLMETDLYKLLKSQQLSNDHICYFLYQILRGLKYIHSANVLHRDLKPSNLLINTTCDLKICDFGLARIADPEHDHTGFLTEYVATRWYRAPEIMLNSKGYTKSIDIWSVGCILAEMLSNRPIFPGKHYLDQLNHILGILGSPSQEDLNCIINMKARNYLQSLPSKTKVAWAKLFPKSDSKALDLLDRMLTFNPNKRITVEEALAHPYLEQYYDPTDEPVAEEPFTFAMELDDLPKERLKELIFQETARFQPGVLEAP

| IC50 [1] [µM] | IC50 [2] [µM] | IC50 [3] [µM] | SMILES | induction of apoptosis (fold induction of caspase 3/7 activity) [4] |
| --- | --- | --- | --- | --- |
| 4.44 | 0.48 | 2.34 | COc1ccc(NC(=O)c2ccc3[nH]c(-c4ccc(N(C)C)cc4)nc3c2)cn1 [Compound 6, 2-(4-Dimethylamino-phenyl)-1H-benzoimidazole-5-carboxylic acid (6-methoxy-pyridin-3-yl)-amide] | induction of apoptosis |
| 6.15 | 0.79 | 25.5 | CCc1ccc(NC(=O)c2ccc3[nH]c(-c4ccc(N(C)C)cc4)nc3c2)cn1 [Compound 7, 2-(4-Dimethylamino-phenyl)-1H-benzoimidazole-5-carboxylic acid (6-ethylpyridin-3-yl)-amide] | induction of apoptosis |
| 8 | 0.32 | 11.8 | CN(C)c1ccc(-c2nc3cc(C(=O)Nc4ccncc4)ccc3[nH]2)cc1 [Compound 2, 2-(4-Dimethylamino-phenyl)-1H-benzoimidazole-5-carboxylic acid pyridin-4-ylamide] | induction of apoptosis |
| > 50 | > 50 | > 50 | CN(C)c1ccc(-c2nc3cc(NC(=O)c4ccccc4)ccc3[nH]2)cc1 [Comp. ex., reference compound] |  |
